The results in this text go back to US6455577B2, “Flavanone derivatives and composition for preventing or treating blood lipid level-related diseases comprising same” (Korea Research Institute of Bioscience and Biotechnology, priority 2000, dated 2002).

Each structure is given as a SMILES string.

Assay [1] has as its system New Zealand White rabbits. The assay can be described thus: Abnormal fat-containing liver cells (fatty liver) in cholesterol-fed rabbits. In kind it is in vivo, rabbit. Here is the method:
(§1) 22 three-month-old New Zealand White rabbits(Yeonam Horticulture and Animal Husbandry College, Korea) each weighing about 2.0 to 2.3 kg were bred under a condition of temperature 20±2° C., relative humidity 55±10%, and photoperiod 12L/12D. The rabbits were divided two groups of 6 rabbits and a group of 10 rabbits, and the rats of three groups were fed with three different diets, i.e., RC4 diet(Oriental Yeast Co., Japan) containing 1% cholesterol(Control group); 1% cholesterol plus 1 mg/kg Lovastatin® (Merck, U.S.A.)(Comparative group); and 1% cholesterol plus 0.1% NG5006, respectively. RC4 diet comprises 7.6% moisture, 22.8% crude protein, 2.8% crude fat, 8.8% crude ash, 14.4% crude cellulose and 43.6% soluble nitrogen-free substances. The rabbits were bred for 8 weeks while being allowed free access to the diets and water.
In order to evaluate the effects of feeding a high cholesterol diet with NG5006 on liver tissues, the liver specimens taken from the sacrificed rabbit in Step 2 of Example 14 were treated in accordance with the procedure disclosed in Fogt F. and Nanji A., Toxicology and Applied Pharmacology, 136, 87-93, 1996; and Keegan A., et al., Journal of Hepatology, 23, 591-600, 1995, and observed under a microscope to be classified into four grades, i.e., 1+(0-25%), 2+(26-50%), 3+(51-75), 4+(76-100%) based on the proportion of abnormal fat-containing cells around the central vein in the liver acinus. The results were tested by student t-test by using Microsoft excel(version 7.0) program.

Assay [2] deals with ACAT. The assay can be described thus: ACAT activity in fed rabbits. In kind it is in vivo, rabbit. The note with it: rabbits fed 1% cholesterol plus 1 mg/kg Lovastatin or 0.1% NG5006, 8 weeks. The procedure: as §1
The effect of feeding NG5006 to rabbits on the activities of ACAT was determined using the rabbits bred in Step 1 of Example 14 in accordance with procedure disclosed in step 1 of Example 13.

The test system of assay [3] is New Zealand White rabbits. The assay can be described thus: Fatty streak in the main artery of cholesterol-fed rabbits. The assay is classed as in vivo, rabbit. The procedure:
as §1
The rabbits bred in Step 1 were sacrificed and their chest were incised. The main artery was cut out therefrom in a length of about 5 cm downward from the site 1 cm above the aortic valve and the fat surrounding the main artery was removed. The main artery was incised in the middle along the longitudinal axis and fixed in 10% neutral buffered formalin for 24 hours, and then, pinned to a dish. The moist artery was photographed and, then, staining of fatty streak was carried out in accordance with the method of Esper, E., et al. (J. Lab. Clin. Med., 121, 103-110(1993)) as follows.
A part of the incised main artery was washed three times by 2 min. with anhydrous propylene glycol and stained for 30 min. with a saturated solution of Oil Red O(ORO, Sigma Co.) dissolved in propylene glycol. Thereafter, the artery was washed twice by 3 min. with 85% propylene glycol to remove remaining staining solution and, then washed with physical saline. The artery was photographed and the photograph was traced. The area of stained legion(fatty streak legion) was determined with an image analyzer(LEICA, Q-600, Germany) and its proportion(%) to the total arterial area was calculated. The result is shown in Table V. The results were tested by student t-test by using Microsoft excel(version 7.0) program.

Assay [4] addresses T1, HMG-CoA reductase (Rattus norvegicus, UniProt P51639).
T1 construct: microsomes were separated from liver tissues to be used as an enzyme source; from tissue; host or cells: liver microsomes of fed rats
T1 sequence (P51639 1-887): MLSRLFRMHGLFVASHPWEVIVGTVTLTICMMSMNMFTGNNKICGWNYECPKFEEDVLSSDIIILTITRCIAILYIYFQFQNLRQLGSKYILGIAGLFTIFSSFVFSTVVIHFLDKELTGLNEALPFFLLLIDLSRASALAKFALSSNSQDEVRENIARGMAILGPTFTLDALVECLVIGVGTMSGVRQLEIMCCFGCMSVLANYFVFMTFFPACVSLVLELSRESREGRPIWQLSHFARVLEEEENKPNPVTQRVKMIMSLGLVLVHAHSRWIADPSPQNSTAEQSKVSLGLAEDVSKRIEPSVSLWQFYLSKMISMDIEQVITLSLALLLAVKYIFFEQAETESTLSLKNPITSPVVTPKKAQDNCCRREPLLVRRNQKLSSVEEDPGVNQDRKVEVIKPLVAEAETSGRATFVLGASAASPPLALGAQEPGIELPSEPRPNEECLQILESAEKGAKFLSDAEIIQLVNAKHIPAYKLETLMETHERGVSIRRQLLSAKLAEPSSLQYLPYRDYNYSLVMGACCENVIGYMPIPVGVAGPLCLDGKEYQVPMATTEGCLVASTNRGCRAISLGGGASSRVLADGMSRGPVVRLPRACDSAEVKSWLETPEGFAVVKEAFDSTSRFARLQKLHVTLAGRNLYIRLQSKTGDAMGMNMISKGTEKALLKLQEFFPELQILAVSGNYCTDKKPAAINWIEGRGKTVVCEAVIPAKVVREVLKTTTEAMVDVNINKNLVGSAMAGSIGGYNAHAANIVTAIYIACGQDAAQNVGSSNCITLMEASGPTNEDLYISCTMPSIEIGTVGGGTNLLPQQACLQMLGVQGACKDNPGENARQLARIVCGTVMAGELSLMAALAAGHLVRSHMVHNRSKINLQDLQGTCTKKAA
The assay can be described thus: HMG-CoA reductase activity in liver microsomes of fed rats. The conditions noted are these: liver microsomes of rats fed 1% cholesterol plus 0.02% naringenin or 0.036% NG5006, six weeks. The assay is classed as in vivo. The procedure:
(§2) To determine the effect of feeding NG5006 to rats on the activities of ACAT and HMG-CoA reductase, microsomes were separated from liver tissues to be used as an enzyme source.
(§3) 1 g each of the livers taken from each group of rats of Example 12 was homogenized in 5 ml of homogenization medium(0. 1 M KH2PO4, pH 7.4, 0.1 mM EDTA and 10 mM β-mercaptoethanol). The homogenate was centrifuged at 3,000×g for 10 min. at 4° C. and the supernatant thus obtained was centrifuged at 15,000×g for 15 min. at 4° C. to obtain a supernatant. The supernatant was put into an ultracentrifuge tube(Beckman) and centrifuged at 100,000×g for 1 hour at 4° C. to obtain microsomal pellets, which were then suspended in 3 ml of the homogenization medium and centrifuged at 100,000×g for 1 hour at 4° C. The pellets thus obtained were suspended in 1 ml of the homogenization medium. The protein concentration of the resulting suspension was determined by Lowry's method and then adjusted to 4 to 8 mg/ml. The resulting suspension was stored in a deep freezer(Biofreezer, Forma Scientific Inc.).
The activity of HMG-CoA reductase was determined by employing [^14C]HMG-CoA, in accordance with the method of Shapiro et al.(Biochemica et Biophysica Acta, 370, 369-377(1974)) as follows.
The enzyme in the supernatant containing the microsome obtained in (Step 1) was activated at 37° C. for 30 min. Added to a reaction tube were 20 μl of HMG-CoA reductase assay buffer(0.25M KH2PO4(pH 7.0), 8.75 mM EDTA, 25 mM DTT, 0.45 M KCl and 0.25 mg/ml BSA), 5 μl of 50 mM NADPH, 5 μl of [^14C]HMG-CoA(0.05μ Ci/tube, final conc. 120μM), and 10 μl of activated microsomal enzyme(0.03-0.04 mg), and the mixture was incubated at 37° C. for 30 min. […] A region having a Rf value ranging from 0.65 to 0.75 was removed by scraping with a disposable cover slips and assayed for radioactivity with 1450 Microbeta liquid scintillation counter(Wallac Co., Finland). Enzyme activities were calculated as picomoles mevalonic acid synthesized per min. per mg protein(pmoles/min/mg protein).
Background: Liver microsomes are vesicles of endoplasmic reticulum, rich in cytochrome P450 enzymes.

For assay [5], the system named is ACAT. The assay can be described thus: ACAT activity in liver microsomes of fed rats. In kind it is in vivo, rat. The conditions noted are these: liver microsomes of rats fed 1% cholesterol plus 0.02% naringenin or 0.036% NG5006, six weeks. The procedure:
as §2, §3
6.67 μl of 1 mg/ml cholesterol solution in acetone was mixed with 6 μl of 10% Triton WR-1339(Sigma Co.) in acetone and then, acetone was removed from the mixture by evaporation under a nitrogen flow. Distilled water was added to the resulting mixture to adjust the concentration of cholesterol to […].
Added to 10 μl of the resulting aqueous cholesterol solution were 10 μl of 1 M KH2PO4(pH 7.4), 5 μl of 0.6 mM bovine serum albumin(BSA), 10 μl of microsome solution obtained in (Step 1) and 55 μl of distilled water(total 90 μl). The mixture was pre-incubated in a water bath at 37° C. for 30 min. […]
200 μl of the resulting supernatant was put in a scintillation bottle and 4 ml of scintillation fluid(Lumac Co.) was added thereto. The mixture was assayed for radioactivity with 1450 Microbeta liquid scintillation counter(Wallac Co., Finland). ACAT activity was calculated as picomoles of cholesteryl oleate synthesized per min. per mg protein(pmoles/min/mg protein).

Assay [6] relates to Sprague-Dawley rats. The assay can be described thus: Plasma total cholesterol, HDL-cholesterol and triglyceride levels in rats fed high-cholesterol diet. In kind it is in vivo, rat. An excerpt: (Step 1) Administration of NG5006 to rats
30 four-week-old white Sprague-Dawley rats (Korea Institute of Science and Technology, Korea), each weighing about 90 to 120 g, were evenly divided into three dietary groups by a randomized block design. The rats of the three groups were fed with three different high-cholesterol diets, i.e., AIN-76 laboratory animal diet(ICN Biochemicals, Cleveland, Ohio, U.S.A.) containing 1% cholesterol(Control group), 1% cholesterol plus 0.02% naringenin and 1% cholesterol plus 0.036% NG5006, respectively.
The rats were allowed to feed freely on the specified diet together with water for six weeks, the ingestion amount was recorded daily and the rats were weighed every 7 days, and then the record was analyzed. […] (Step 2) Determination of total cholesterol, HDL-cholesterol and triglyceride contents in blood
The effects of administering naringenin or NG5006 to rats on the plasma cholesterol and triglyceride contents were determined as follows.
Blood samples were taken from the rats of the three dietary groups and total cholesterol level was determined by using Sigma Diagnostic Kit Cat. No. C0534(Sigma Chemical Co., U.S.A.). HDL fractions were separated therefrom by using HDL-cholesterol reagent(Sigma Chemical Co., Cat. No. 352-1) and HDL-cholesterol level was determined by using Sigma Diagnostic Kit Cat. No. C9908(Sigma Chemical Co., U.S.A.). Triglyceride level was determined by using Sigma Diagnostic Kit Cat. No. 336-10(Sigma Chemical Co., U.S.A.).

[7] abbreviates: 1% cholesterol plus 1 mg/kg Lovastatin or 0.1% NG5006.
Where [8] appears, read: plasma, rats on 1% cholesterol diet plus 0.02% naringenin or 0.036% NG5006, six weeks.
The mark [9] stands for this setting: rats, 1% cholesterol diet, six weeks.

As for `CC[C@H](C)C(=O)O[C@H]1C[C@@H](C)C=C2C=C[C@H](C)[C@H](CC[C@@H]3C[C@@H](O)CC(=O)O3)[C@H]21` [Lovastatin ®, Lovastatin, reference compound], in assay [1] (setting [7]), the “microscopic features of the livers (FIGS. 2B, 2C)” value is listed as “many cells containing excessive fat were observed around the central vein”. Moreover, the “Proportion of abnormal fat-containing liver cells (grade)” value in assay [1] (grades 1+(0-25%), 2+(26-50%), 3+(51-75), 4+(76-100%), 1% cholesterol plus 1 mg/kg Lovastatin or 0.1% NG5006, 8 weeks) is reported as 3.3 ± 1.1. Further, in assay [2], the ACAT activity is 246.1 ± 52.5 pmole/min/mg protein. Moreover, the “% Inhibition on ACAT Activity” value in assay [2] (versus control group) is 4.2%. Further, in assay [3] (setting [7]), the “layer on the arterial endothelium (FIGS. 1B, 1C)” value is listed as “no or very thin layers of macrophage-lipid complex”. In assay [3] (1% cholesterol plus 1 mg/kg Lovastatin or 0.1% NG5006, 8 weeks), the “formation of fatty streak compared to the control group, in words” value is given as “significantly inhibit the formation of fatty streak”. In addition, in assay [3] (1% cholesterol plus 1 mg/kg Lovastatin or 0.1% NG5006, 8 weeks, Oil Red O staining), the “Fatty Streak lesion (proportion of total arterial area)” value is listed as 18.0 ± 9.5%.
`O=C1C[C@@H](c2ccc(O)cc2)Oc2cc(O)cc(O)c21` [Naringenin, naringenin, reference compound]: in assay [4], the HMG-CoA reductase activity stood at 87.7 ± 5.9 pmole/min/mg protein. The ACAT activity in assay [5] worked out at 153.3 ± 6.9 pmole/min/mg protein. In assay [6] (setting [8]), the “HDL-C (HDL-cholesterol)” value came out at 35.8 ± 1.5 mg/dL, the HDL-C/Total-C was found to be 18.8 ± 0.9%, the “TG (triglyceride)” value worked out at 143.7 ± 9.4 mg/dL and the “Total-C (total cholesterol)” value was 190.6 ± 7.6 mg/dL. Further, in assay [6] (rats on 1% cholesterol diet plus 0.02% naringenin or 0.036% NG5006, six weeks), the “AI: Atherosclerosis Index (AI = (Total-C − HDL-C)/HDL-C)” value was determined as 4.3 ± 0.3. In assay [6] (setting [9]), the “total plasma cholesterol level lower than in the Control group” value came to 16% and the “triglyceride level lower than in the control group” value is given as 6%.
